Laboratory results reported in US10590128B2, “6,7,8,9-tetrahydro-5H-pyrido[2,3-d]azepine dopamine D3 ligands” (Pfizer Inc., priority 2016, dated 2020).

Experiments:
[1] = target: human dopamine D2 receptor (hD2R) (Homo sapiens, UniProt P14416); assay: Human D2 receptor binding assay ([^3H]-Spiperone); conditions: CHO cells expressing hD2R, geometric mean of 2-5 determinations unless marked b (single determination)
Description: (§1) Human D2 Receptor and Human D3 Receptor Binding Assays:
(§2) These determined ligand and tissue concentrations were utilized in time course studies to determine linearity and equilibrium conditions for binding. […] The hD2R assay buffer contains 50 mM Tris (pH 7.4 @ 37° C.), 100 mM NaCl and 1 mM MgCl2. The hD3R assay buffer consists of 50 mM Tris (pH 7.4 at 37° C.), 120 mM NaCl, 5 mM MgCl2, 5 mM KCl and 2 mM CaCl2. Competitive binding experiments were initiated by the addition of 200 μL of the respective cell homogenate to 96-well plates containing […] test drugs (10 concentrations using ½ log dilutions) and 50 μL of ^3H-radioligand for a final volume of 250 μL. Non-specific binding was determined by radioligand binding in the presence of a saturating concentration of Haldol (10 μM). After the 20 minute incubation at 37° C., assay samples were rapidly filtered through Unifilter-96 GF/B PEI-coated filter plates and rinsed with ice-cold 50 mM Tris buffer (pH 7.4 at 4° C.). […] The IC50 value (concentration at which 50% inhibition of specific binding occurs) was calculated by linear regression of the concentration-response data in ActivityBase. Ki values were then calculated according to the Cheng-Prusoff equation:
(§3) [formula] where [L]=concentration of free radioligand and Kd=dissociation constant of radioligand for D3 receptor or D2 receptor.

[2] = target: human dopamine D3 receptor (hD3R) (Homo sapiens, UniProt P35462); assay: Human D3 receptor binding assay ([^3H]-7-OH-DPAT); conditions: CHO cells expressing hD3R, geometric mean of 2-5 determinations unless marked b (single determination), read-out: hD3 in CHO cells Ki
Description: as §1, §2, §3

human dopamine D2 receptor (hD2R), sequence (P14416 whole entry): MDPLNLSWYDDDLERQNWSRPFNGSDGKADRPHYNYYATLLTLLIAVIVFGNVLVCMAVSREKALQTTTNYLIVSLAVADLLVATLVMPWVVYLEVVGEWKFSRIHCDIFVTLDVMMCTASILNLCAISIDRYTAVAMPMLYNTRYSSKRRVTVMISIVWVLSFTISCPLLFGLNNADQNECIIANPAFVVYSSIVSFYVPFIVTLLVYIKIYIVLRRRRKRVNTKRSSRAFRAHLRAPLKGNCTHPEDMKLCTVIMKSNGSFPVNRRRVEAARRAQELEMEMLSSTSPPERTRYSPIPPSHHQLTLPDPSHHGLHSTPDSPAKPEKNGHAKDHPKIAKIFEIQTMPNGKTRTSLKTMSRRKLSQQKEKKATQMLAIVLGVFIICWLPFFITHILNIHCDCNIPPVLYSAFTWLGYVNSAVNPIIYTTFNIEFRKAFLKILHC
human dopamine D3 receptor (hD3R), sequence (P35462 whole entry): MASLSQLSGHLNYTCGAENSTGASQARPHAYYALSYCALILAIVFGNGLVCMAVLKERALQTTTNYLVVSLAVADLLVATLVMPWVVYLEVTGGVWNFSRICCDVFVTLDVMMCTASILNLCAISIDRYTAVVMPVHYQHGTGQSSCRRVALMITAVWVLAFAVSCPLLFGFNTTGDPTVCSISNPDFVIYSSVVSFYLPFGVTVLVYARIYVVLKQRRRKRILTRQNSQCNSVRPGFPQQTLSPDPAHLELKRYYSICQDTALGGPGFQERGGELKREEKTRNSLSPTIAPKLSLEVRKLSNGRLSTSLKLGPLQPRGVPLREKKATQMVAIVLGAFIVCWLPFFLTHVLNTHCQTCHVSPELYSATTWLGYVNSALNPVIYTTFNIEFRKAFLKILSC

| Structure (SMILES) | Ki [1] [nM] | Ki [2] [nM] |
| --- | --- | --- |
| COc1nc2c(cc1NS(=O)(=O)c1ccc([C@H]3C[C@@H](OC)C3)cc1)CCN(C)CC2 [Example 81, 4-(cis-3-methoxycyclobutyl)-N-(2-methoxy-7-methyl-6,7,8,9-tetrahydro-5H-pyrido[2,3-d]azepin-3-yl)benzenesulfonamide] | 311 | 1.19 |
| COc1nc2c(cc1NS(=O)(=O)c1ccc(C3CC(F)(F)CCO3)cc1)CCN(C)CC2 (single isomer, unassigned) [Example 41] | 177 | 2.31 |
| CCN1CCc2cc(NS(=O)(=O)c3ccc(C4CCCCO4)cc3)c(OC)nc2CC1 (racemic) [Example 70, N-(7-ethyl-2-methoxy-6,7,8,9-tetrahydro-5H-pyrido[2,3-d]azepin-3-yl)-4-(tetrahydro-2H-pyran-2-yl)benzenesulfonamide] | 294 | 2 |
| COc1nc2c(cc1NS(=O)(=O)c1ccc(C)cc1)CCN(C)CC2 [Example 5, N-(2-Methoxy-7-methyl-6,7,8,9-tetrahydro-5H-pyrido[2,3-d]azepin-3-yl)-4-methylbenzenesulfonamide] | 333 | 3.72 |
| CCN1CCc2cc(NS(=O)(=O)c3ccc(C4CCCCC4)nc3)c(OC)nc2CC1 [Example 114, 6-cyclohexyl-N-(7-ethyl-2-methoxy-6,7,8,9-tetrahydro-5H-pyrido[2,3-d]azepin-3-yl)pyridine-3-sulfonamide] | 146 | 3.15 |
| COc1nc2c(cc1NS(=O)(=O)c1ccc(CC3CCCC3)nc1)CCN(C)CC2 [Example 131, 6-(cyclopentylmethyl)-N-(2-methoxy-7-methyl-6,7,8,9-tetrahydro-5H-pyrido[2,3-d]azepin-3-yl)pyridine-3-sulfonamide] | 36.1 | 2.3 |
| CCN1CCc2cc(NS(=O)(=O)c3ccc(C4CCOCC4)cc3)c(OC)nc2CC1 [Example 57, N-(7-ethyl-2-methoxy-6,7,8,9-tetrahydro-5H-pyrido[2,3-d]azepin-3-yl)-4-(tetrahydro-2H-pyran-4-yl)benzenesulfonamide] | 229 | 3.14 |
| COc1nc2c(cc1NS(=O)(=O)c1cnc(OC(C)(C)C)nc1)CCN(C)CC2 [Example 117, 2-tert-butoxy-N-(2-methoxy-7-methyl-6,7,8,9-tetrahydro-5H-pyrido[2,3-d]azepin-3-yl)pyrimidine-5-sulfonamide] | 464 | 9.93 |
| COc1nc2c(cc1NS(=O)(=O)c1cnc(OC3CCCC3)nc1)CCN(C)CC2 [Example 18, 2-(cyclopentyloxy)-N-(2-methoxy-7-methyl-6,7,8,9-tetrahydro-5H-pyrido[2,3-d]azepin-3-yl)pyrimidine-5-sulfonamide] | 142 | 3.58 |
| CCN1CCc2cc(NS(=O)(=O)c3cnc(OC4CCCC4)c(C)c3)c(OC)nc2CC1 [Example 125, 6-(cyclopentyloxy)-N-(7-ethyl-2-methoxy-6,7,8,9-tetrahydro-5H-pyrido[2,3-d]azepin-3-yl)-5-methylpyridine-3-sulfonamide] | 4.05 | 1.46 |
| COc1nc2c(cc1NS(=O)(=O)c1ccc(OC(C)(C)C)nc1)CCN(C)CC2 [Example 103, 6-tert-butoxy-N-(2-methoxy-7-methyl-6,7,8,9-tetrahydro-5H-pyrido[2,3-d]azepin-3-yl)pyridine-3-sulfonamide] | 45.2 | 1.85 |
| COc1nc2c(cc1NS(=O)(=O)c1ccc([C@H]3CCCCO3)c(F)c1)CCN(C)CC2 [Example 110, 3-fluoro-N-(2-methoxy-7-methyl-6,7,8,9-tetrahydro-5H-pyrido[2,3-d]azepin-3-yl)-4-[(2R)-tetrahydro-2H-pyran-2-yl]benzenesulfonamide] | 25 | 1.27 |
| CCN1CCc2cc(NS(=O)(=O)c3ccc(Oc4ccccc4)nc3)c(OC)nc2CC1 [Example 60, N-(7-ethyl-2-methoxy-6,7,8,9-tetrahydro-5H-pyrido[2,3-d]azepin-3-yl)-6-phenoxypyridine-3-sulfonamide] | 395 | 2.94 |
| COc1nc2c(cc1NS(=O)(=O)c1cnc(C3CCCCC3)nc1)CCN(C)CC2 [Example 127, 2-cyclohexyl-N-(2-methoxy-7-methyl-6,7,8,9-tetrahydro-5H-pyrido[2,3-d]azepin-3-yl)pyrimidine-5-sulfonamide] | 457 | 32.2 |
| CCN1CCc2cc(NS(=O)(=O)c3ccc(OC4CCCC4)cc3)c(OC)nc2CC1 [Example 63, 4-(cyclopentyloxy)-N-(7-ethyl-2-methoxy-6,7,8,9-tetrahydro-5H-pyrido[2,3-d]azepin-3-yl)benzenesulfonamide] | 11.4 | 0.32 |
| COc1nc2c(cc1NS(=O)(=O)c1ccc(C3CCCC3)nc1)CCN(C)CC2 [Example 16, 6-cyclopentyl-N-(2-methoxy-7-methyl-6,7,8,9-tetrahydro-5H-pyrido[2,3-d]azepin-3-yl)pyridine-3-sulfonamide] | 122 | 2.41 |
| CCN1CCc2cc(NS(=O)(=O)c3ccc(C)c(F)c3)c(OC)nc2CC1 [Example 35, N-(7-ethyl-2-methoxy-6,7,8,9-tetrahydro-5H-pyrido[2,3-d]azepin-3-yl)-3-fluoro-4-methylbenzenesulfonamide] | 995 | 3.7 |
| CCN1CCc2cc(NS(=O)(=O)c3ccc(C4CCCC4)nc3)c(OC)nc2CC1 [Example 102, 6-cyclopentyl-N-(7-ethyl-2-methoxy-6,7,8,9-tetrahydro-5H-pyrido[2,3-d]azepin-3-yl)pyridine-3-sulfonamide] | 325 | 2.81 |
| COc1nc2c(cc1NS(=O)(=O)c1ccc(C3CC(F)CCO3)cc1)CCN(C)CC2 (single isomer, unassigned; diastereomer-2) [Example 109, 4-(4-fluorotetrahydro-2H-pyran-2-yl)-N-(2-methoxy-7-methyl-6,7,8,9-tetrahydro-5H-pyrido[2,3-d]azepin-3-yl)benzenesulfonamide, diastereomer-2] | 208 | 3.16 |
| CCCc1ccc(S(=O)(=O)Nc2cc3c(nc2OC)CCN(CC)CC3)cc1 [Example 62, N-(7-ethyl-2-methoxy-6,7,8,9-tetrahydro-5H-pyrido[2,3-d]azepin-3-yl)-4-propylbenzenesulfonamide] | 52.8 | 0.4 |
| CCN1CCc2nc(OC)c(NS(=O)(=O)c3ccc(C(C)C)cc3)cc2C(C)C1 (stereo not shown) [Example 56, N-(7-ethyl-2-methoxy-5-methyl-6,7,8,9-tetrahydro-5H-pyrido[2,3-d]azepin-3-yl)-4-(propan-2-yl)benzenesulfonamide] | 162 | 2.12 |
| COc1nc2c(cc1NS(=O)(=O)c1ccc(C3(F)CCCC3)nc1)CCN(C)CC2 [Example 11, 6-(1-fluorocyclopentyl)-N-(2-methoxy-7-methyl-6,7,8,9-tetrahydro-5H-pyrido[2,3-d]azepin-3-yl)pyridine-3-sulfonamide] | 106 | 3.31 |
| COc1nc2c(cc1NS(=O)(=O)c1ccc(OC3CCOCC3)cc1)CCN(C)CC2 [Example 78, N-(2-methoxy-7-methyl-6,7,8,9-tetrahydro-5H-pyrido[2,3-d]azepin-3-yl)-4-(tetrahydro-2H-pyran-4-yloxy)benzenesulfonamide] | 718 | 7.56 |
| COc1nc2c(cc1NS(=O)(=O)c1cnc(OC3CCC3)nc1)CCN(C)CC2 [Example 116, 2-(cyclobutyloxy)-N-(2-methoxy-7-methyl-6,7,8,9-tetrahydro-5H-pyrido[2,3-d]azepin-3-yl)pyrimidine-5-sulfonamide] | 379 | 7.17 |
| COc1nc2c(cc1NS(=O)(=O)c1ccc(C3CCCOC3)cc1)CCN(C)CC2 (single isomer, unassigned) [Example 84] | 503 | 4.58 |
| COc1nc2c(cc1NS(=O)(=O)c1ccc(C(C)C)cc1)CCN(CCCF)CC2 [Example 44, N-[7-(3-fluoropropyl)-2-methoxy-6,7,8,9-tetrahydro-5H-pyrido[2,3-d]azepin-3-yl]-4-(propan-2-yl)benzenesulfonamide] | 162 | 2.25 |
| COc1nc2c(cc1NS(=O)(=O)c1ccc(C3CCOC(C)(C)C3)cc1)CCN(C)CC2 (single isomer, unassigned) [Example 87] | 276 | 3.61 |
| COc1nc2c(cc1NS(=O)(=O)c1ccc([C@@H]3CCCCO3)cc1)CCN(C)CC2 [Example 8, N-(2-Methoxy-7-methyl-6,7,8,9-tetrahydro-5H-pyrido[2,3-d]azepin-3-yl)-4-[(2S)-tetrahydro-2H-pyran-2-yl]benzenesulfonamide] | 180 | 2.09 |
| CCN1CCc2cc(NS(=O)(=O)c3ccc(C4(F)CCOCC4)cc3)c(OC)nc2CC1 [Example 75, N-(7-ethyl-2-methoxy-6,7,8,9-tetrahydro-5H-pyrido[2,3-d]azepin-3-yl)-4-(4-fluorotetrahydro-2H-pyran-4-yl)benzenesulfonamide] | 262 | 3.2 |
